The values below come from US11406628B2, “Sustained-release triptan compositions and method of use the same through subdermal route or the like” (Taiwan Liposome Co., Ltd, priority 2017, dated 2022).

Like-named read-outs stand apart in the source and are kept apart here.

For series [1] the following is noted: female rats, cited from earlier work; for Cmax/dose: normalization using sumatriptan succinate dosage.
For series [2] the following is noted: human, cited from earlier work.
The test system of series [3] is patients. The following applies: within 24 hours or 48 hours of initial symptom resolution; cited from earlier work.
Series [4] in a line: Pharmacokinetic study of liposomal sumatriptan in rats after single subcutaneous administration. Here is the method:
Jugular vein cannulated (JVC) female Sprague-Dawley rats (7-9 weeks) were used for a pharmacokinetic (PK) study. The rats were housed in a holding room which operates on a 12-hour light/12-hour dark circadian cycle with free access (ad libitum) to water and food.
Blood samples were collected at 2, 4, 8, 24, 48 and 72 hours post-injection. Plasma samples were obtained by centrifugation and then dimethyl sulfoxide was added to the plasma samples at a final concentration of 5% (v/v) for storing the samples at −80° C. until analysis. One-hundred microliters of each sample were subject to separation of sumatriptan by a Strata C18-E tube to obtain the sumatriptan fraction and sumatriptan concentration was determined employing LC-MS/MS methods.
The unformulated sumatriptan injection was prepared by dissolving the sumatriptan tartrate in ultrapure water at 2 mg/mL. The in vivo PK profiles of the rats (n=3) administrated with unformulated sumatriptan following subcutaneous injection at the dosage of 3 mg/kg of sumatriptan tartrate were compared to the PK profiles of the rats administered 10 mg/kg of sumatriptan from the liposomal sumatriptan formulation. Blood samples were collected at 15 mins, 0.5, 1, 2, 4, 6 and 8 hours post-injection. Plasma samples were obtained by centrifugation and were kept frozen at −80° C. until analysis.
FIG. 1 depicts the mean sumatriptan concentration versus time curve over 72 hours post-injection. Table 2 provides a summary of the PK parameters which were obtained using a noncompartmental model within the PKSolver program.

The mark [5] stands for this setting: unformulated 3 mg/kg, liposomal 10 mg/kg.

Consider `CNS(=O)(=O)Cc1ccc2[nH]cc(CCN(C)C)c2c1` [sumatriptan], for which the t1/2 in series [1] (intranasal administration) was 3.6 h; in series [1] (intravenous administration), 1.1 h. Besides, the figures for the Cmax/dose in series [1] (intranasal) and in series [1] (intravenous) were 25 ng/mL and 508.6 ng/mL, respectively. In addition, the “half-life (t1/2)” value in series [2] (6 mg subcutaneous injection) was 2 h; in series [2] (20 mg intranasal administration), 1.8 h; in series [2] (100 mg oral tablet), 2 h; in series [2] (irrespective of route of administration) it was “approximately 2 hours”. The “time to reach maximum plasma concentration” value in series [2] (subcutaneous injection) is reported as “approximately 10 minutes”. In addition, in series [3], the migraine recurrence rate entry is given as “about 40%”.
In series [4] (dose-normalized), “sumatriptan tartrate [Unformulated Sumatriptan]” returned an AUC0-t/dose of 226.9 and a Cmax/dose of 138. In series [4] (setting [5]), this compound showed an AUC0-inf of 687.4 ng·h/mL, an AUC0-t of 680.6 ng·h/mL, a Cmax of 414 ng/mL and a t1/2 of 1.1 h.
